From patent US20240382548A1, “COMPOSITIONS COMPRISING CASTANEA SATIVA EXTRACTS FOR TREATMENT OF HELICOBACTER PYLORI INFECTIONS” (priority 2021, published 2024)
In brackets after ≈: the same amount, converted by molar mass. Where two headings read alike, the source gives them in different places. Each block holds one molecule with its values, some of them ahead of it.

Assays:
H. pylori = assay: Antibacterial activity (MIC) on a strain of H. pylori; format: cell-based; details: Helicobacter pylori; for MIC: read-out: MIC on H. pylori
Description: The antibacterial activity of the chestnut extract was evaluated by measuring the MIC (Minimum Inhibitory Concentration) on a strain of H. pylori.

[1] = system: non-tumoral human gastric epithelial cells GES-1; format: cell-based; details: 10-50 μM concentration range
Description: Firstly, the extract was analysed to establish its possible cytotoxicity (using the MTT colorimetric assay) towards non-tumoral human gastric epithelial cells GES-1 in the presence of H. pylori (ratio 1:50).

[2] = system: IL-8 release induced by H. pylori in GES-1 cells; assay: IL-8 release induced by H. pylori in GES-1 cells; format: cell-based, human; details: for effect on IL-8 release induced by the pathogen: 10-50 μM
Description: At the same concentrations, the extract inhibits IL-8 release induced by H. pylori in GES-1 cells; the pathogen induces IL-8 release in gastric epithelial cells, of about a 20-fold increase compared with the unstimulated control. […] EGCG 50 μM (50% inhibition) was used as a positive control.

[3] = system: nuclear transcription factor NF-κB; assay: NF-κB-guided transcription (luciferase reporter) induced by H. pylori; format: cell-based; details: 50 μM, positive control
Description: The nuclear transcription factor NF-κB is involved in inflammation of the gastric epithelium induced by H. pylori and is also responsible for increased expression of pro-inflammatory genes, including IL-8, in the gastric cells. […] The cells were 20 subjected to transient transfection with a plasmid containing three KB responsive sites upstream of the gene encoding for luciferase; the cells then underwent treatment with the pathogen, and the transcription was measured after 6 hours by luminescence.

Structure (SMILES): CN(C)[C@@H]1C(O)=C(C(N)=O)C(=O)[C@@]2(O)C(O)=C3C(=O)c4c(O)cccc4[C@@](C)(O)[C@H]3C[C@@H]12 [Tetracycline, reference compound]
- inhibition at 0.25 µg/mL (H. pylori; 0.25 μg/mL, positive control, read-out: inhibition of the growth of the pathogen): 80%

Structure (SMILES): O=C1OC[C@H]2OC(=O)c3cc(O)c(O)c(O)c3-c3c(O)c(O)c(O)c4c3C(=O)O[C@H]([C@H]3OC(=O)c5c-4c(O)c(O)c(O)c5[C@H]3O)[C@@H]2OC(=O)c2cc(O)c(O)c(O)c2-c2c1cc(O)c(O)c2O [castalagin]
- toxicity [1]: did not exhibit any toxicity
- effect on IL-8 release induced by the pathogen [2]: concentration-dependent inhibition
- MIC (H. pylori; same experimental conditions as the extract): 25 µM (≈ 23.4 µg/mL)

- inhibition of NF-κB-guided transcription [3]: 63%
Structure (SMILES): O=C(O[C@@H]1Cc2c(O)cc(O)cc2O[C@@H]1c1cc(O)c(O)c(O)c1)c1cc(O)c(O)c(O)c1 [EGCG, epigallocatechin gallate, reference compound]
- inhibition of IL-8 release ([2]; 50 μM, positive control): 50%

Structure (SMILES): O=C1OCC2OC(=O)c3cc(O)c(O)c(O)c3-c3c(O)c(O)c(O)c4c3C(=O)OC(C2OC(=O)c2cc(O)c(O)c(O)c2-c2c1cc(O)c(O)c2O)C1OC(=O)c2c-4c(O)c(O)c(O)c2C1O (stereo not drawn) [vescalagin]
- toxicity [1]: did not exhibit any toxicity
- effect on IL-8 release induced by the pathogen [2]: concentration-dependent inhibition
- MIC (H. pylori): 25 µM (≈ 23.4 µg/mL)
